Test system: 292921-168-R-J2-PDC KRAS tumor spheroid viability
Assay: Anticancer human tumor 292921-168-R-J2-PDC patient-derived pancreatic carcinoma cell line growth inhibition [KRAS2]
Conditions: spheroids with HUVEC and MSC; for IC50: curve of first compound; for viability, T/C: stronger effect = lower value
In short: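 KRAS-mutant tumor cells were grown as spheroids with HUVEC endothelial cells and human MSCs as stroma. Targeted agents were tested alone and with KRAS pathway inhibitors. Doses started at or near clinical Cmax, or 10 microM, descending half-log.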

[1] = second compound 0.1 µM, first compound 0.0316 µM
[2] = second compound 0.1 µM, first compound 0.1 µM
[3] = second compound 0.1 µM, first compound 0.316 µM
[4] = second compound 0.1 µM, first compound 1 µM
[5] = second compound 0.1 µM, first compound 3.16 µM
[6] = second compound 0.316 µM, first compound 0.0316 µM
[7] = second compound 0.316 µM, first compound 0.1 µM
[8] = second compound 0.316 µM, first compound 0.316 µM
[9] = second compound 0.316 µM, first compound 1 µM
[10] = second compound 0.316 µM, first compound 3.16 µM
[11] = second compound 1 µM, first compound 0.0316 µM
[12] = second compound 1 µM, first compound 0.1 µM
[13] = second compound 1 µM, first compound 0.316 µM
[14] = second compound 1 µM, first compound 1 µM
[15] = second compound 1 µM, first compound 3.16 µM
[16] = second compound 3.16 µM, first compound 0.0316 µM
[17] = second compound 3.16 µM, first compound 0.1 µM
[18] = second compound 3.16 µM, first compound 0.316 µM
[19] = second compound 3.16 µM, first compound 1 µM
[20] = second compound 3.16 µM, first compound 3.16 µM
[21] = second compound 10 µM, first compound 0.0316 µM
[22] = second compound 10 µM, first compound 0.1 µM
[23] = second compound 10 µM, first compound 0.316 µM
[24] = second compound 10 µM, first compound 1 µM
[25] = second compound 10 µM, first compound 3.16 µM
[26] = second compound 0.1 µM, first compound 0.000316 µM
[27] = second compound 0.1 µM, first compound 0.001 µM
[28] = second compound 0.1 µM, first compound 0.00316 µM
[29] = second compound 0.1 µM, first compound 0.01 µM
[30] = second compound 0.316 µM, first compound 0.000316 µM
[31] = second compound 0.316 µM, first compound 0.001 µM
[32] = second compound 0.316 µM, first compound 0.00316 µM
[33] = second compound 0.316 µM, first compound 0.01 µM
[34] = second compound 1 µM, first compound 0.000316 µM
[35] = second compound 1 µM, first compound 0.001 µM
[36] = second compound 1 µM, first compound 0.00316 µM
[37] = second compound 1 µM, first compound 0.01 µM
[38] = second compound 3.16 µM, first compound 0.000316 µM
[39] = second compound 3.16 µM, first compound 0.001 µM
[40] = second compound 3.16 µM, first compound 0.00316 µM
[41] = second compound 3.16 µM, first compound 0.01 µM
[42] = second compound 10 µM, first compound 0.000316 µM
[43] = second compound 10 µM, first compound 0.001 µM
[44] = second compound 10 µM, first compound 0.00316 µM
[45] = second compound 10 µM, first compound 0.01 µM
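Note: drug exposure lasted seven days after spheroids formed for three days.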
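Throughout, for viability, T/C: percent of DMSO vehicle control viability which is 100%.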

| SMILES | IC50 (second compound 0.1 µM) [nM] | IC50 (second compound 0.316 µM) [nM] | IC50 (second compound 1 µM) [nM] | IC50 (second compound 3.16 µM) [nM] | IC50 (second compound 10 µM) [nM] | viability, T/C [1] [%] | viability, T/C [2] [%] | viability, T/C [6] [%] | viability, T/C [7] [%] | viability, T/C [11] [%] | viability, T/C [12] [%] | viability, T/C [16] [%] | viability, T/C [17] [%] | viability, T/C [21] [%] | viability, T/C [22] [%] | viability, T/C [29] [%] | viability, T/C [33] [%] | viability, T/C [37] [%] | viability, T/C [41] [%] | viability, T/C [45] [%] | other results |
| --- | --- | --- | --- | --- | --- | --- | --- | --- | --- | --- | --- | --- | --- | --- | --- | --- | --- | --- | --- | --- | --- |
| COc1cc(Nc2ncc3c(n2)-c2ccc(Cl)cc2C(c2c(F)cccc2OC)=NC3)ccc1C(=O)O + CC1OCC2(CCN(c3cnc(Sc4ccnc(N)c4Cl)c(N)n3)CC2)C1N | < 31.6 | < 31.6 | < 31.6 | < 31.6 | < 31.6 | 22.8 | 21.9 | 21.1 | 18.9 | 18.3 | 15.5 | 18.1 | 16.4 | 16 | 16.7 | – | – | – | – | – | viability, T/C [3]: 22.8%; viability, T/C [4]: 22.3%; viability, T/C [5]: 17.3%; viability, T/C (second compound 0.1 µM, first compound 10 µM): 14.1%; viability, T/C [8]: 22.8%; viability, T/C [9]: 19.9%; viability, T/C [10]: 16.8%; viability, T/C (second compound 0.316 µM, first compound 10 µM): 10.6%; viability, T/C [13]: 18.5%; viability, T/C [14]: 15.5%; viability, T/C [15]: 13.6%; viability, T/C (second compound 1 µM, first compound 10 µM): 10.8%; viability, T/C [18]: 16.9%; viability, T/C [19]: 14.9%; viability, T/C [20]: 12.8%; viability, T/C (second compound 3.16 µM, first compound 10 µM): 10.2%; viability, T/C [23]: 16.1%; viability, T/C [24]: 15.7%; viability, T/C [25]: 14%; viability, T/C (second compound 10 µM, first compound 10 µM): 10.3% |
| CN(C)C/C=C/C(=O)Nc1cc2c(Nc3ccc(F)c(Cl)c3)ncnc2cc1O[C@H]1CCOC1 + CNCc1ccccc1-c1csc(C(C)Nc2nc(C)nc3cc(OC)c(OC)cc23)c1 | > 100 | > 100 | 48.9 | 1.93 | < 0.316 | 64.5 | 57.5 | 58 | 55 | 56.1 | 43.7 | 74.7 | 1.26 | 0.13 | 0.17 | 70.3 | 71.1 | 59.6 | 0.11 | 0.08 | viability, T/C [26]: 90.9%; viability, T/C [27]: 86.3%; viability, T/C [28]: 72.4%; viability, T/C [30]: 82.4%; viability, T/C [31]: 80.6%; viability, T/C [32]: 70.6%; viability, T/C [34]: 74.4%; viability, T/C [35]: 62%; viability, T/C [36]: 60%; viability, T/C [38]: 105%; viability, T/C [39]: 91.1%; viability, T/C [40]: 0.17%; viability, T/C [42]: 0.13%; viability, T/C [43]: 0.13%; viability, T/C [44]: 0.09% |
| CC(C)n1nc(-c2ccc3oc(N)nc3c2)c2c(N)ncnc21 + CC1OCC2(CCN(c3cnc(Sc4ccnc(N)c4Cl)c(N)n3)CC2)C1N | 1.06 | < 0.316 | < 0.316 | < 0.316 | < 0.316 | 20.8 | 19.1 | 18.4 | 16.6 | 17.4 | 14.5 | 14.9 | 12.5 | 12.8 | 11.3 | 29.4 | 21.6 | 19.3 | 16.6 | 17 | viability, T/C [26]: 66.5%; viability, T/C [27]: 51.4%; viability, T/C [28]: 35.4%; viability, T/C [30]: 48.7%; viability, T/C [31]: 38.5%; viability, T/C [32]: 30.5%; viability, T/C [34]: 44%; viability, T/C [35]: 36.4%; viability, T/C [36]: 26.1%; viability, T/C [38]: 32.3%; viability, T/C [39]: 28.3%; viability, T/C [40]: 23.7%; viability, T/C [42]: 27.2%; viability, T/C [43]: 27.8%; viability, T/C [44]: 20.1% |
| CC(=O)OC12COC1CC(O)C1(C)C(=O)C(O)C3=C(C)C(OC(=O)C(O)C(NC(=O)OC(C)(C)C)c4ccccc4)CC(O)(C(OC(=O)c4ccccc4)C21)C3(C)C (stereo not given) + C=CC(=O)N1CCN(c2nc(=O)n(-c3c(C)ccnc3C(C)C)c3nc(-c4c(O)cccc4F)c(F)cc23)C(C)C1 | < 10 | < 10 | < 10 | < 10 | < 10 | 15.4 | 14.2 | 17.1 | 13 | 17.5 | 14.9 | 18.2 | 16.9 | 18.4 | 16.6 | 14.6 | 12.9 | 17.1 | 18.1 | 20.5 | viability, T/C [3]: 12.3%; viability, T/C [4]: 14.5%; viability, T/C [5]: 17.3%; viability, T/C [8]: 13.1%; viability, T/C [9]: 13.7%; viability, T/C [10]: 18.3%; viability, T/C [13]: 12.9%; viability, T/C [14]: 14.4%; viability, T/C [15]: 19.1%; viability, T/C [18]: 15.7%; viability, T/C [19]: 16.1%; viability, T/C [20]: 17.9%; viability, T/C [23]: 15.3%; viability, T/C [24]: 15.7%; viability, T/C [25]: 17.2% |
| CC(=O)Nc1cccc(-n2c(=O)n(C3CC3)c(=O)c3c(Nc4ccc(I)cc4F)n(C)c(=O)c(C)c32)c1 + CC1OCC2(CCN(c3cnc(Sc4ccnc(N)c4Cl)c(N)n3)CC2)C1N | < 0.1 | < 0.1 | < 0.1 | < 0.1 | < 0.1 | 8.15 | – | 7.3 | – | 6.35 | – | 5.35 | – | 4.49 | – | 10.5 | 9.03 | 7.15 | 7.15 | 5.62 | viability, T/C (second compound 0.1 µM, first compound 0.0001 µM): 48.8%; viability, T/C [26]: 28.9%; viability, T/C [27]: 18.2%; viability, T/C [28]: 14.6%; viability, T/C (second compound 0.316 µM, first compound 0.0001 µM): 35.4%; viability, T/C [30]: 27.8%; viability, T/C [31]: 15.6%; viability, T/C [32]: 11.9%; viability, T/C (second compound 1 µM, first compound 0.0001 µM): 30.1%; viability, T/C [34]: 17.7%; viability, T/C [35]: 13.1%; viability, T/C [36]: 9.44%; viability, T/C (second compound 3.16 µM, first compound 0.0001 µM): 22.9%; viability, T/C [38]: 15.7%; viability, T/C [39]: 11.9%; viability, T/C [40]: 8.12%; viability, T/C (second compound 10 µM, first compound 0.0001 µM): 18.3%; viability, T/C [42]: 14.1%; viability, T/C [43]: 9.59%; viability, T/C [44]: 7.02% |

Source: PubChem BioAssay AID1963870 (Molecular Pharmacology Branch, DTP, NCI, 2024)
